In US8653096B2, “Chemokine receptor antagonists and methods of use thereof” (Millennium Pharmaceuticals, Inc., priority 2001, dated 2014) one finds IC50 data, which are given here for 25 compounds.

Each structure is given as a SMILES string.

The target of this test is T1, RANTES/MIP-1α chemokine receptor (CCR1) in THP-1 cell membranes (Homo sapiens, UniProt P32246).
T1 construct: Membranes were prepared from THP-1 cells (ATCC #TIB202); host or cells: THP-1 cells (membrane preparation)
T1 sequence (P32246 1-355): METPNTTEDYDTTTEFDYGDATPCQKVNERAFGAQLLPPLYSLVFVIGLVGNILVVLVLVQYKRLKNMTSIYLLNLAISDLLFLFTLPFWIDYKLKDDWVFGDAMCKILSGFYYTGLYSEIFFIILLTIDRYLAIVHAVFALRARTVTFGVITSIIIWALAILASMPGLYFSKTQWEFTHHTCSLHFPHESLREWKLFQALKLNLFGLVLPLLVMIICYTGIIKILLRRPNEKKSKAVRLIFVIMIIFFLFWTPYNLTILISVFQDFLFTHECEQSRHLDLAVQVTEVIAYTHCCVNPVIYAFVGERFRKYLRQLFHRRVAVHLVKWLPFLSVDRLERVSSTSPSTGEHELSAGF
The experiment in a line: Receptor binding assay: 125I-RANTES or 125I-MIP-1α binding to THP-1 cell membranes. The conditions noted are these: inhibitor concentration required for 50% inhibition of specific binding; 125I-RANTES or 125I-MIP-1α as ligand, THP-1 cell membranes; read-out: IC50.
A word on the IC50: it is the concentration that gives 50% inhibition. For the compound `CC(C)(O)c1ccc2c(c1)C(=CCCN1CCC(O)(c3ccc(Cl)cc3)C(C)(CO)C1)c1cccnc1CO2` (stereo not shown) [Example 482, 4-(4-Chloro-phenyl)-3-hydroxymethyl-1-{3-[7-(hydroxyl-1-methyl-ethyl)-11H-10-oxa-1-aza-dibenzo[a, d]cyclohepten-5-ylidene]-propyl}-3-methyl-piperidine-4-ol], the IC50 is < 1 µM. For the compound `CCOCC1(C)CN(CCC=C2c3cc(C(C)(C)O)ccc3OCc3ncccc32)CCC1(O)c1ccc(Cl)cc1` (stereo not shown) [Example 484, 4-(4-Chloro-phenyl)-3-ethoxymethyl-1-{3 [7-(-hydroxy-1-methyl-ethyl)-11H-10-oxa-1-aza-dibenzo[a,d]cyclohepten-5-ylidene]-propyl}-3-methyl-piperidin-4-ol], the IC50 is < 1 µM. The figure for `CCOC(=O)COCC1(C)CN(CCC=C2c3cc(C(C)(C)O)ccc3OCc3ncccc32)CCC1(O)c1ccc(Cl)cc1` (stereo not shown) [Example 485, (4-(4-Chloro-phenyl)-4-hydroxy-1-{3 [7-(1-hydroxy-1-methyl-ethyl)-11H-10-oxa-1-aza-dibenzo[a,d]cyclohepten-5-ylidene]-propyl}-3-methyl-piperidin-3-ylmethoxy)-acetic acid ethyl ester] is < 1 µM. On to `CCN(CC)CCOCC1(C)CN(CCC=C2c3cc(C(C)(C)O)ccc3OCc3ncccc32)CCC1(O)c1ccc(Cl)cc1` (stereo not shown) [Example 486], for which the IC50 is < 1 µM. Regarding `CCN(Cc1ccc(Cl)cc1)C1CCN(CCC=C2c3cc(C(C)(C)O)ccc3OCc3ncccc32)CC1` [Example 487, 2-[5-(3-{4-[(4-Chloro-benzyl)ethyl-amino]-piperidin-1-yl}-propylidene)-5,11-dihydro-10-oxa-1-aza-dibenzo[a,d]cyclohepten-7-yl]-propan-2-ol], the IC50 was < 1 µM. As to `CC(C)(O)c1ccc2c(c1)C(=CCCN1CCC(O)(c3ccccc3Cl)CC1)c1cccnc1CO2` [Example 489, 4-(2-Chloro-phenyl)-1-{3-[7-(1-hydroxy-1-methyl-ethyl)-11H-10-oxa-1-azadibenzo[a,d]cyclohepten-5-ylidene]-propyl}-piperidin-4-ol], the IC50 was < 10 µM. `Cc1cc(Cl)ccc1C1(O)CCN(CCC=C2c3cc(C(C)(C)O)ccc3OCc3ncccc32)CC1` [Example 490, 4-(4-Chloro-2-methyl-phenyl)-1-{3-[7-(1-hydroxy-1-methyl-ethyl)-11H-10-oxa-1-aza-dibenzo[a,d]cyclohepten-5-ylidene]-propyl}-piperidin-4-ol]: the IC50 is < 1 µM. Turning to `CC(C)(O)c1ccc2c(c1)C(=CCCN1CCC(O)(c3ccc(Cl)c(Cl)c3)CC1)c1cccnc1CO2` [Example 491, 4-(3,4-Dichloro-phenyl)-1-{3-[7-(1-hydroxy-1-methyl-ethyl)-11H-10-oxa-1-aza-dibenzo[a,d]cyclohepten-5-ylidene]-propyl}-piperidin-4-ol], the IC50 was < 1 µM. The figure for `CC(C)(O)c1ccc2c(c1)C(=CCCN1CCC(O)(c3ccc(Cl)c([N+](=O)[O-])c3)CC1)c1cccnc1CO2` [Example 492, 4-(4-Chloro-3-nitro-phenyl)-1-{3-[7-(1-hydroxy-1-methyl-ethyl)-11H-10-oxa-1-aza-dibenzo[a,d]cyclohepten-5-ylidene]-propyl}-piperidin-4-ol] is < 10 µM.

Regarding `CCN(c1ccc(Cl)cc1)C1CCN(CCC=C2c3cc(C(C)(C)O)ccc3OCc3ncccc32)CC1` [Example 493, 2-[5-(3-{4-[(4-Chloro-phenyl)-ethyl-amino]-piperidin-1-yl}-propylidene)-5,11-dihydro-10-oxa-1-aza-dibenzo[a,d]cyclohepten-7-yl]-propan-2-ol], the IC50 was < 10 µM. `COC1(c2ccc(Cl)cc2)CCN(CCC=C2c3cc(C(C)(C)O)ccc3OCc3ncccc32)CC1` [Example 494, 2-(5-{3-[4-(4-Chloro-phenyl)-4-methoxy-piperidin-1-yl]-propylidene}-5,11-dihydro-10-oxa-1-aza-dibenzo[a,d]cyclohepten-7-yl)-propan-2-ol]: the IC50 is < 1 µM. `CC(C)(O)c1ccc2c(c1)C(=CCCN1CCC(Oc3ccccc3Cl)CC1)c1cccnc1CO2` [Example 495, 2-(5-{3-[4-(2-Chloro-phenoxy)-piperidin-1-yl]-propylidene}-5,11-dihydro-10-oxa-1-aza-dibenzo[a,d]cyclohepten-7-yl)-propan-2-ol]: the IC50 was < 1 µM. For the compound `CC(C)(O)c1ccc2c(c1)C(=CCCN1CCC(C(=O)c3ccc(Cl)cc3)CC1)c1cccnc1CO2` [Example 496, (4-Chloro-phenyl)-(1-{3-[7-(1-hydroxy-1-methyl-ethyl)-11H-10-oxa-1-aza-dibenzo[a,d]cyclohepten-5-ylidene]-propyl}-piperidin-4-yl)-methanone], the IC50 was < 10 µM. Turning to `CC(C)(O)c1ccc2c(c1)C(=CCCN1CCC(Oc3ccc(C(F)(F)F)cc3)CC1)c1cccnc1CO2` [Example 497, 2-(5-{3-[4-(4-trifluoromethyl-phenoxy)-piperidin-1-yl]-propylidene}-5,11-dihydro-10-oxa-1-aza-dibenzo[a,d]cyclohepten-7-yl)-propan-2-ol], the IC50 was < 10 µM. Then `CC(C)(O)c1ccc2c(c1)C(=CCCN1CCC(N3C(=O)OCC3Cc3ccc(Cl)cc3)CC1)c1cccnc1CO2` (stereo not shown) [Example 498, 4-(4-Chloro-benzyl)-3-(1-{3-[7-(1-hydroxy-1-methyl-ethyl)-11H-10-oxa-1-aza-dibenzo[a,d]cyclohepten-5-ylidene]-propyl}-piperidin-4-yl)-oxazolidin-2-one], with < 10 µM; and `C=C(C)c1ccc2c(c1)C(=CCCN1CCC(c3ccc(Cl)cc3)(C(C)O)CC1)c1cccnc1CO2` (stereo not shown) [Example 499, 1-{4-(4-Chloro-phenyl)-1-[3-(7-isopropenyl-11H-10-oxa-1-aza-dibenzo[a,d]cyclohepten-5-ylidene)-propyl]-piperidin-4-yl}-ethanol], with < 10 µM.

Regarding `COC(=O)CN(Cc1ccc(Cl)cc1)C1CCN(CCC=C2c3cc(C(C)(C)O)ccc3OCc3ncccc32)CC1` [Example 500, [(4-Chloro-benzyl)-(1-{3-[7-(1-hydroxy-1-methyl-ethyl)-11H-10-oxa-1-aza-dibenzo[a,d]cyclohepten-5-ylidene]-propyl}-piperidin-4-yl)-amino]-acetic acid methyl ester], the IC50 is < 10 µM. Then `CC(C)(O)c1ccc2c(c1)C(=CCCN1CCC(N(CC(=O)O)Cc3ccc(Cl)cc3)CC1)c1cccnc1CO2` [Example 501, [(4-Chloro-benzyl)-(1-{3-[7-(1-hydroxy-1-methyl-ethyl)-11H-10-oxa-1-aza-dibenzo[a,d]cyclohepten-5-ylidene]-propyl}-piperidin-4-yl)-amino]-acetic acid], with < 10 µM. Consider `CC(C)(O)c1ccc2c(c1)C(=CCCN1CC[C@](O)(c3ccc(Cl)cc3)C(C)(C)C1)c1cccnc1CO2` [Example 502, S-4-(4-Chloro-phenyl)-1-{3-[7-(1-hydroxy-1-methyl-ethyl)-11H-10-oxa-1-aza-dibenzo[a,d]cyclohepten-5-ylidene]-propyl}-3,3-dimethyl-piperidin-4-ol], for which the IC50 is < 1 µM.

With `CC(C)(O)c1ccc2c(c1)C(=CCCN1CC[C@@](O)(c3ccc(Cl)cc3)C(C)(C)C1)c1cccnc1CO2` [Example 503, R-4-(4-Chloro-phenyl)-1-{3-[7-(1-hydroxy-1-methyl-ethyl)-11H-10-oxa-1-aza-dibenzo[a,d]cyclohepten-5-ylidene]-propyl}-3,3-dimethyl-piperidin-4-ol], the IC50 is < 1 µM. For the compound `CC(=O)c1ccc2c(c1)C(=CCCN1CC[C@](O)(c3ccc(Cl)cc3)C(C)(C)C1)c1cccnc1CO2` [Example 504, S-1-(5-{3-[4-(4-Chloro-phenyl)-4-hydroxy-3,3-dimethyl-piperidin-1-yl]-propylidene}-5,11-dihydro-10-oxa-1-aza-dibenzo[a,d]cyclohepten-7-yl)-ethanone], the IC50 was < 1 µM. As for `CC(=O)c1ccc2c(c1)C(=CCCN1CC[C@@](O)(c3ccc(Cl)cc3)C(C)(C)C1)c1cccnc1CO2` [Example 505, R-1-(5-{3-[4-(4-Chloro-phenyl)-4-hydroxy-3,3-dimethyl-piperidin-1-yl]-propylidene}-5,11-dihydro-10-oxa-1-aza-dibenzo[a,d]cyclohepten-7-yl)-ethanone], the IC50 is < 1 µM. The figure for `CC(=O)OCCOc1ccc2c(c1)C(=CCCN1CCC(O)(c3ccc(Cl)cc3)C(C)(C)C1)c1cccnc1CO2` (stereo not shown) [Example 506, Acetic acid 2-(5-{3-[4-(4-chloro-phenyl)-4-hydroxy-3,3-dimethyl-piperidin-1-yl]-propylidene}-5,11-dihydro-10-oxa-1-aza-dibenzo[a,d]cyclohepten-7-yloxy)-ethyl ester] is < 1 µM; for `CC1(C)CN(CCC=C2c3cc(OCCO)ccc3OCc3ncccc32)CCC1(O)c1ccc(Cl)cc1` (stereo not shown) [Example 507, 4-(4-Chloro-phenyl)-1-{3-[7-(2-hydroxy-ethoxy)-11H-10-oxa-1-aza-dibenzo[a,d]cyclohepten-5-ylidene]-propyl}-3,3-dimethyl-piperidin-4-ol] it is < 1 µM. On to `COCCOc1ccc2c(c1)C(=CCCN1CCC(O)(c3ccc(Cl)cc3)C(C)(C)C1)c1cccnc1CO2` (stereo not shown) [Example 508, 4-(4-Chloro-phenyl)-1-{3-[7-(2-methoxy-ethoxy)-11H-10-oxa-1-aza-dibenzo [a,d]cyclohepten-5-ylidene]-propyl}-3,3-dimethyl-piperidin-4-ol], for which the IC50 is < 1 µM.
